The record followed here is patent publication US20050042209A1, “MUC1 extracellular domain and cancer treatment compositions and methods derived therefrom” (priority 2000, published 2005).

In data set [1] the test system is MUC1.
Description: Cell Culture: Human MCF-7 breast carcinoma and HeLa cervical carcinoma cella (obtained form the ATCC, Manassas, Va.) were grown in DMEM (high glucose; Mediatech, Cellgrow) supplemented with 10% heat-inactivated fetal calf serum (FCS) and 2 mM L-glutamate.
Immunoblot analysis: Cells were lysed in ice-cold lysis buffer (20 mM Tris-HCl, pH 8.0, 150 mM NaCl, 1% Triton-X-100, 1 mM phenylsulfonyl fluoride, 1 mM DTT, 10 μgm/ml aprotinin) for 30 min. Lysates were cleared by centrifugation for 20 min. at 4° C. as described (Yin et al, 2001). Proteins were separated by SDS-PAGE, transferred to nitrocellulose and probed with anti-DF3/MUC1 (Kufe, U.S. Pat. No. 5,506,34) or anti-β-actin (Sigma). The antigen-antibody complexes were visualized by enhanced chemiluminescence (ECL; Amersham Life Sciences).
CDDO downregulates MUC1 expression: MUC1-positive cells were treated with CDDO at concentrations of 1, 3 and 5 μM.
Another data set has as its system intracellular ROS. As to conditions: NAC pretreatment.
Data set [2] concerns MUC1. Kind of data set: MUC1 induction by oxidative and genotoxic stress (immunoblot). As to the method:
To determine whether MUC1 is induced in response to oxidative stress, MCF-7 cells were treated with hydrogen peroxide. Cell lysates were analyzed by immunoblotting with anti-DF3/MUC1 antibody. Lysates were prepared by suspending MCF-7 cells in lysis buffer (50 mM Tris, pH 7.6, 150 mM NaCl, 1 mM PMSF, 3 mM NaF, 1 mM sodium vandate, 1 mM DTT with protease inhibitors and either 1% NP-40 or 1% Brij-96) for 30 min. on ice. Lysates were cleared by centifugation and equal amounts of proteins were resolved by SDS-PAGE. Proteins were then transferred to nitrocellulose filters, blocked by incubation in 5% non-fat dry milk in PBS with 0.05% Tween-20 and probed with anti-MUC1 antibody (Pandey et al., 1995). Anti-actin was used as a control.
Similar studies were performed with genotoxic agents.

The subject of the next data set is HeLa cells. As to conditions: HeLa/MUC1 vs HeLa/V, FIG. 4.

Description for HeLa cells: DNA content was assessed by staining ethanol-fixed cells with propidium iodide and monitoring by FACScan (Beckton Dickerson). Numbers of cells with sub-G1 DNA content were determined with a MODFIT LT program, (Verity Software House, Topsham, Me.) (Yuan et al., 1997). The cells were analyzed for induction of sub-G1 DNA by flow cytometry as a marker of apoptosis.
The induction of apoptosis in cells treated with 0.01 mM taxol for 20 hr was assessed by measuring sub-G1 DNA content of HeLa cells expressing empty vector or MUC1.
Description for intracellular ROS: Measurement of ROS levels: Cells were incubated with 10 mM DCF-DA Sigma) for 15 min. at 37° C. to assess ROS-mediated oxidation of the fluorescent compound DCF (LeBel et al., 1992). Fluorescence of oxidized DCF was measured at an excitation wavelength of 480 nm and an emission wavelength of 525 nm using a flow cytometer (Beckton Dickerson, Lincoln Park, N.J.).
As a control, cells were incubated with NAC, a scavenger of ROS.

As to `CC(=O)N[C@@H](CS)C(=O)O` [NAC, N-acetylcysteine], in the data set with MUC1 [1] (cells treated with antioxidant), the “CDDO-, CDDO-Me-, CDDO-Im- and CDDO-Pr-Im-induced decreases in MUC1” value was “blocked”. Moreover, the “H2O2-induced downregulation of MUC1” value in the data set on MUC1 [1] (with NAC) is “reversed”. Besides, in the data set with intracellular ROS, the “CDDO-induced ROS production” value is “abrogation”.
For the molecule `OO` [hydrogen peroxide], in the data set on MUC1 [2] (MCF-7 cells), the “MUC1 expression (immunoblot)” value was “rapidly and transiently induced”. For the same molecule, the “apoptotic response (sub-G1 DNA), effect of MUC1” value with HeLa cells (1 mM hydrogen peroxide for 1 hr) is “MUC1 inhibits the apoptotic response”. In the data set with MUC1 [1] (0.1 mM H2O2), the MUC1 expression result is given as “downregulation of MUC1”.
As for `CC(=O)O[C@H]1C(=O)[C@@]2(C)[C@H]([C@H](OC(=O)c3ccccc3)[C@]3(O)C[C@H](OC(=O)[C@H](O)[C@@H](NC(=O)c4ccccc4)c4ccccc4)C(C)=C1C3(C)C)[C@]1(OC(C)=O)CO[C@@H]1C[C@@H]2O` [taxol], in the data set on MUC1 [2] (available evidence, cells not given), the “MUC1 induction by diverse cytotoxic agents” value is “induced”. Further, in the data set on HeLa cells (0.01 mM taxol for 20 hr), the “induced apoptosis (sub-G1 DNA), effect of MUC1” value is given as “inhibited by MUC1 expression”.
